# Target: T1, human CRTH2 receptor (Homo sapiens, UniProt Q9Y5Y4)
# T1 construct: host or cells: CHO-K1 (CHO-K1-hCRTH2 cells), membranes prepared in house
# T1 sequence (Q9Y5Y4 1-395): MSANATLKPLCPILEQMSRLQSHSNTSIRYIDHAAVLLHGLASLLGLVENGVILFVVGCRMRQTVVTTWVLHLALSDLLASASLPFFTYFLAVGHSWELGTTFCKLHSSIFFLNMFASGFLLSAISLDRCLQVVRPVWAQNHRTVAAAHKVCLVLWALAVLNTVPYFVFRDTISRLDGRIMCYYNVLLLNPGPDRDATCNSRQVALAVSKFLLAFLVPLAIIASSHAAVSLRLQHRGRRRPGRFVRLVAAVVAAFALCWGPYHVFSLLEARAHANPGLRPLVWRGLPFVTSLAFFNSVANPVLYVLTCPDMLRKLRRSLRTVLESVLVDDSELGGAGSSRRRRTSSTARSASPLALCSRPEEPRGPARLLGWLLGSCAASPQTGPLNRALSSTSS
# Test: CRTH2 receptor radioligand binding assay (SPA, [3H]-PGD2)
# Conditions: displacement of [3H]-PGD2 (1 nM) from CHO-K1-hCRTH2 cell membranes, SPA format, 3 h room temperature
# Protocol: The binding of CRTH2 antagonists is determined using membranes prepared from Chinese hamster ovary cells (CHO-K1 cells) transfected with the human CRTH2 receptor (CHO-K1-hCRTH2 cells, Perkin Elmer, Cat No ES-561-C). To produce cell membranes the CHO-K1-hCRTH2 cells are cultured in suspension in CHO SFMII medium supplemented with 400 μg/ml G418. The cells are harvested by centrifugation at 300 g for 10 min at room temperature. The cell pellet is resuspended in Phosphate Buffer Saline (PBS) including a protease inhibitor mix (Complete, Roche) and adjusted to a concentration of 10E7 cells/ml. The CHO-K1-hCRTH2 cells are disrupted by nitrogen […] to obtain the membrane preparation. Cell debris is removed by centrifugation (500 g at 4° C., 30 min) and the supernatant is transferred into fresh tubes followed by a second centrifugation at 40000 g for 1 h at 4° C. to sediment the membranes. The membranes are suspended in SPA incubation buffer (50 mM Tris HCl, 10 mM MgCl2, 150 mM NaCl, 1 mM EDTA, pH 7.4) without bovine serum albumin, homogenized by passing through a single use needle (Terumo, 23G×1″), and stored in aliquots at −80° C.
# The CRTH2 receptor binding assay is performed in a scintillation proximity assay (SPA) format with the radioligand [^3H]-PGD2 (Perkin Elmer, NET616000MC). CHO-K1-hCRTH2 cell membranes are again homogenized by passing through a single use needle (Terumo, 23G×1″) and diluted in SPA incubation buffer in suitable concentrations (0.5-10 μg protein/well). The SPA assay is set up in 96 well microtiter plates (Perkin Elmer, CatNo. 6005040) in SPA incubation buffer with a final volume of 200 μl per well and final concentration of 50 mM Tris-HCl, 10 mM MgCl2, 150 mM NaCl, 1 mM EDTA pH 7.4, 0.1% bovine serum albumin). The SPA assay mixture contains 60 μl of the membrane suspension, 80 μl of Wheat Germ Agglutinin coated PVT beads (GE Healthcare, RPNQ-0001, 0.3 mg/well), 40 μl of [3H]-PGD2 diluted in SPA buffer to a final concentration of 1 nM (50 000 dpm) and 20 μl of the test compound (dissolved in dimethylsulfoxid). The SPA assay mixture is incubated for 3 h at room temperature. Bound radioactivity is determined with a scintillation counter (Micro Beta Trilux, Wallac).
# The binding of [^3H]-PGD2 to CHO-K1-hCRTH2 cell membranes is determined in the absence (total binding, Bo) and presence (non-specific binding, NSB) of unlabelled PGD2 (1 μM, Cayman Chemical, Cat No 12010) or a reference CRTH2 antagonist (10 μM CAY10471, Cayman Chemical, Cat No 10006735).
# Determination of the affinity of a test compound is calculated by subtraction of the non-specific binding (NSB) from the total binding (Bo) or the binding in the presence of the test compound (B) at a given compound concentration. […] The Bo-NSB value is set to 0% inhibition.
row,Ki [pM],Compound
1,1200,CCc1c(C(=O)Nc2ccc(Cn3nc(C)c(CC(=O)O)c3C)cc2)oc2ccc(F)cc12 [Cmpd 48]
2,800,Cc1nn(Cc2ccc(NC(=O)c3oc4ccc(F)cc4c3C)cc2)c(C)c1CC(=O)O [Cmpd 4]
3,800,Cc1nn(Cc2ccc(NC(=O)c3cc4ccccc4[nH]3)cc2F)c(C)c1CC(=O)O [Cmpd 1]
4,800,Cc1nn(Cc2ccc(NC(=O)c3cc4ccccc4o3)cc2)c(C)c1CC(=O)O [Cmpd 26]
5,300,Cc1nn(Cc2ccc(NC(=O)c3oc4ccc(Br)cc4c3C)cc2F)c(C)c1CC(=O)O [Cmpd 45]
6,200,CCn1c(C(=O)Nc2ccc(Cn3nc(C)c(CC(=O)O)c3C)c(F)c2)cc2cc(F)ccc21 [Cmpd 32]
7,600,Cc1nn(Cc2ccc(NC(=O)c3oc4ccc(F)cc4c3C)cc2F)c(C)c1CC(=O)O [Cmpd 27]

# Reference: US20140148492A1, “BICYCLOSUBSTITUTED PYRAZOLE COMPOUNDS FOR TREATING HAIR LOSS” (Boehringer Ingelheim International GmbH, priority 2012, published 2014)
